Read-outs that look alike come from different tables or passages of the source.
How the values were obtained:
HLA-A*0301 = HLA-A*0301 (Homo sapiens, UniProt P04439); test: Cell-based HLA class I-peptide concentration-based stability assay (TAP-deficient mono-allelic 721.221 cells); settings: HLA A*03 mono-allelic TAP-deficient 721.221 cells, relative anti-HLA MFI; for Relative HLA MFI (10 uM): peptide 10 uM; for Relative HLA MFI (100 uM): peptide 100 uM
Description: (§1) Controls without peptide, but the corresponding concentration of DMSO, were performed in parallel.

HLA-B*5701 [1] = molecular target: T1, HLA-B*5701 (Homo sapiens, UniProt P01889, D201E/D98Y/E176V/E187L/E204Q/E69M/E70A/G107R/I90N/K202T/L105A/L119I/N104I/N87E/Q89R/Q94S/R106L/R155S/R180L/R86G/S101N/S121V/S35A/S48A/T118I/V36M/Y140S/Y91M); test: as above; settings: for Relative HLA MFI (10 uM) / Relative HLA MFI (100 uM): section B*57, TAP-deficient mono-allelic 721.221 cells, relative anti-HLA MFI; for Relative HLA MFI (10 uM): peptide 10 uM; for Relative HLA MFI (100 uM): peptide 100 uM; for anti-HLA MFI (surface HLA-B*5701): representative (Fig S2B)
Description: as §1

[2] = test system: HLA class-I alleles A*0101, A*0201, A*0301, A*2402, B*0702, B*0801, B*1402, B*1501, B*2705, B*3501, B*3901, B*4001, B*4402, B*5201, B*5701, B*5801, B*8101 …; type: cell-based, human; settings: relative anti-HLA MFI; for Relative HLA MFI (10 uM): peptide 10 uM; for Relative HLA MFI (100 uM): peptide 100 uM
HLA-B*0702 = HLA-B*0702 (Homo sapiens, UniProt P01889); test: Cell-based HLA class I-peptide concentration-based stability assay (TAP-deficient mono-allelic 721.221 cells); settings: HLA B*07 mono-allelic TAP-deficient 721.221 cells, relative anti-HLA MFI; for Relative HLA MFI (10 uM): peptide 10 uM; for Relative HLA MFI (100 uM): peptide 100 uM
HLA-B*8101 = HLA-B*8101 (Homo sapiens, UniProt P01889, A269T/D138N/E176V/R180L/T167S/W171L); test: as above; settings: relative anti-HLA MFI; for Relative HLA MFI (10 uM): section B*81, peptide 10 uM; for Relative HLA MFI (100 uM): section B*81, peptide 100 uM
Chain of HLA-B*8101 (P01889 25-362 D138N/T167S/W171L/E176V/R180L/A269T limits assumed): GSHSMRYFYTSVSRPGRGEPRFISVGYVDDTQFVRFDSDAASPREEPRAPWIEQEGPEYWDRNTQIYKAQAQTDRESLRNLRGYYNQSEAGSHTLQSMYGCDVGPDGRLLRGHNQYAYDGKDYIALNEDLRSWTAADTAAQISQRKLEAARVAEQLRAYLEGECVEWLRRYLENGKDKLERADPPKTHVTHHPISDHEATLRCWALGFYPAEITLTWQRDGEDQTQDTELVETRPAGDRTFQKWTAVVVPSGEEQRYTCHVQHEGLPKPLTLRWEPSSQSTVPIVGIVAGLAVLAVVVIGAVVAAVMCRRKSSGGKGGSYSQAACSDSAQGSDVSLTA

HLA-B*5701 [3] = molecular target: T1, HLA-B*5701; test: Thermal denaturation (differential scanning fluorimetry) of soluble HLA class I-peptide monomers; type: binding; settings: DSF, 2 μM pMHC, SYPRO orange; representative, performed twice as technical triplicates (Fig S4B)
Description: To confirm these observations and further validate the cell-based stability assay, we used an orthogonal approach to evaluate the relationship between HLA class-I-peptide stability and ID by assessing thermal denaturation of soluble HLA class-I-peptide complexes ([Hellman et al., 2016]). In this assay, soluble HLA class-I monomers with bound peptide are incubated in the presence of an environmentally sensitive fluorescent molecule whose fluorescence is enhanced when bound to exposed hydrophobic surfaces during protein unfolding. As a result, the thermal stability (Tm, defined as the temperature at which 50% of the protein is unfolded) of an HLA class-I-peptide complex can be determined by fluorometric measurements during incremental temperature increases, which serve as a proxy for the stabilizing capacity of a bound epitope ([Hellman et al., 2016]).
This relative difference in Tm between ID and SubD epitopes was also observed for HLA-A^∗02 and HLA-B^∗57 (Figure S4) and collectively was statistically significant (Figure 3C).
Expression, refold and purification of the soluble constructs of the pMHCs were performed as previously described ([Pierce et al., 2014]). Briefly, the HLA-A^∗02, HLA-A^∗03 and HLA-B^∗57 heavy chains, and β2-microglobulin were expressed in Escherichia coli and purified as inclusion bodies (IBs). The IBs were solubilized in 8M Urea. Target peptides were provided by the MGH Peptide Core. […]
Differential scanning fluorimetry was performed using a Bio-RAD CFX96 real time PCR system as previously described. Briefly, the excitation and emission wavelengths were set to 587 and 607 nm respectively, and the fluorescence intensity was measured after every 1°C rise in temperature starting from 20°C and going up to 95°C. […] Apparent Tm values were calculated by identifying the point at which the melting transition was 50% complete.

[4] = HLA A*02 mono-allelic TAP-deficient 721.221 cells
[5] = HLA B*08 mono-allelic TAP-deficient 721.221 cells
[6] = HLA B*15 mono-allelic TAP-deficient 721.221 cells
[7] = HLA B*39 mono-allelic TAP-deficient 721.221 cells
[8] = HLA B*35 mono-allelic TAP-deficient 721.221 cells
[9] = HLA B*40 mono-allelic TAP-deficient 721.221 cells
[10] = HLA B*27 mono-allelic TAP-deficient 721.221 cells

Sequence	Relative HLA MFI (10 uM) (HLA-B*5701 [1])	Relative HLA MFI (100 uM) (HLA-B*5701 [1])	Relative HLA MFI (10 uM) (HLA-B*0702)	Relative HLA MFI (100 uM) (HLA-B*0702)	further results
AIFQSSMTK [ATK9]	–	–	–	–	Relative HLA MFI (10 uM) (HLA-A*0301): 0.3479; Relative HLA MFI (100 uM) (HLA-A*0301): 0.6619
AIIRILQQL [AL9]	0	0.004343	–	–	Relative HLA MFI (10 uM) [2, 4]: 0.2439; Relative HLA MFI (100 uM) [2, 4]: 0.5341
AVDLSHFLK [ALK9]	–	–	–	–	Relative HLA MFI (10 uM) (HLA-A*0301): 0.274; Relative HLA MFI (100 uM) (HLA-A*0301): 0.7814
AVFIHNFKRK [AK10]	–	–	–	–	Relative HLA MFI (10 uM) (HLA-A*0301): 0.265; Relative HLA MFI (100 uM) (HLA-A*0301): 1
AVRHFPRIW [AW9]	0.4343	0.7818	–	–	–
ERILSTYLGR [ER10]	–	–	–	–	Relative HLA MFI (10 uM) (HLA-A*0301): 0.09869; Relative HLA MFI (100 uM) (HLA-A*0301): 0.5827
FPRIWLHGL [FL9 (Vpr)]	–	–	0.2812	0.7264	–
FPRIWLHGL [FL9]	–	–	–	–	Relative HLA MFI (10 uM) (HLA-B*8101): 0.69; Relative HLA MFI (100 uM) (HLA-B*8101): 1
FPVTPQVPL [FL9 (Nef)]	–	–	0.348	0.9848	–
FPVTPQVPLR [FR10]	–	–	0.1079	0.5897	–
FSPEVIPMF [FF9]	0.003257	0.02714	–	–	–
GAFDLSFFL [GL9]	–	–	0.1155	0.2918	Relative HLA MFI (10 uM) [2, 4]: 0.2773; Relative HLA MFI (100 uM) [2, 4]: 0.6097; Relative HLA MFI (10 uM) [2, 5]: 0.3886; Relative HLA MFI (100 uM) [2, 5]: 0.8634; Relative HLA MFI (10 uM) [2, 6]: 0.06703; Relative HLA MFI (100 uM) [2, 6]: 0.1423; Relative HLA MFI (10 uM) [2, 7]: 0.6524; Relative HLA MFI (100 uM) [2, 7]: 1
HMYISKKAK [HK9]	–	–	–	–	Relative HLA MFI (10 uM) (HLA-A*0301): 0.2644; Relative HLA MFI (100 uM) (HLA-A*0301): 0.8145
HPRVSSEVHI [HI10]	–	–	0.007599	0.6565	–
HPVHAGPIA [HA9]	–	–	0.3541	0.8359	Relative HLA MFI (10 uM) [2, 8]: 0.57; Relative HLA MFI (100 uM) [2, 8]: 0.8723
HTQGYFPDWQ [HQ10]	0.03149	0.01629	–	–	–
IATESIVIW [IAW9]	0.4853	1	–	–	–
IPRRIRQGL [IL9]	–	–	0.3754	1	Relative HLA MFI (10 uM) [2, 8]: 0.6542; Relative HLA MFI (100 uM) [2, 8]: 0.68; Relative HLA MFI (10 uM) [2, 9]: 0.518; Relative HLA MFI (100 uM) [2, 9]: 0.8038
ISKKAKGWF [IF9]	0.4093	0.557	–	–	–

Sequence	Relative HLA MFI (10 uM) (HLA-B*5701 [1])	Relative HLA MFI (100 uM) (HLA-B*5701 [1])	Relative HLA MFI (10 uM) (HLA-B*0702)	Relative HLA MFI (100 uM) (HLA-B*0702)	further results
IVLPEKDSW [IW9 (RT)]	0.4821	0.7481	–	–	–
KAFSPEVI [KI8]	0.06623	0.2215	–	–	–
KAFSPEVIPMF [KF11]	0.2215	0.5689	–	–	anti-HLA MFI (surface HLA-B*5701) (HLA-B*5701 [1]; absence of β2m): 426; anti-HLA MFI (surface HLA-B*5701) (HLA-B*5701 [1]; presence of β2m (3 µg/mL)): 565; thermal stability (Tm) of HLA-B*5701-peptide complex (HLA-B*5701 [3]): 57 °C
KAIGTVLV [KV8]	0.05212	0	–	–	–
KTKPPLPSVKK [KK11]	–	–	–	–	Relative HLA MFI (10 uM) (HLA-A*0301): 0.3455; Relative HLA MFI (100 uM) (HLA-A*0301): 0.9676
LGHGVSIEW [LW9]	0	0.005429	–	–	–
LRPMTYKAA [LA9]	–	–	–	–	Relative HLA MFI (10 uM) (HLA-B*8101): 0.0372; Relative HLA MFI (100 uM) (HLA-B*8101): 0.09141; Relative HLA MFI (10 uM) [2, 10]: 0.09012; Relative HLA MFI (100 uM) [2, 10]: 0.09773
LTFGWCFKL [LL9]	0	0	–	–	–
QAVRIIKILY [QY10]	0	0	–	–	–
RGPGRAFVTI [RI10]	–	–	0.02584	0.4954	Relative HLA MFI (10 uM) [2, 4]: 0.001172; Relative HLA MFI (100 uM) [2, 4]: 0.4741; Relative HLA MFI (10 uM) [2, 10]: 0.4976; Relative HLA MFI (100 uM) [2, 10]: 0.7237
RIRTWKSLVK [RK10]	–	–	–	–	Relative HLA MFI (10 uM) (HLA-A*0301): 0.3155; Relative HLA MFI (100 uM) (HLA-A*0301): 0.8607
RLRDLLLIVTR [RR11]	–	–	–	–	Relative HLA MFI (10 uM) (HLA-A*0301): 0; Relative HLA MFI (100 uM) (HLA-A*0301): 0.02843
RPAEPVPLQL [RL10]	–	–	0.196	0.848	–
SPAIFQSSM [SM9]	–	–	0	0.1337	–
SPRTLNAWV [SV9]	–	–	0	0.114	–
STTVKAACWW [SW10]	0.3518	0.4995	–	–	–
TPGPGVRYPL [TL10]	–	–	0	0.1231	–
TPVNIIGRNML [TL11]	–	–	–	–	Relative HLA MFI (10 uM) (HLA-B*8101): 0.7114; Relative HLA MFI (100 uM) (HLA-B*8101): 0.9995
YTPGPGIRY [YY9]	0	0	–	–	–

Source: publication PMC8293625, “HLA class-I-peptide stability mediates CD8^+ T cell immunodominance hierarchies and facilitates HLA-associated immune control of HIV” (Cell Reports, 2021)
